Experimental data as given in patent US11161854B2, “Indazolyl-spiro[2.2]pentane-carbonitrile derivatives as LRRK2 inhibitors, pharmaceutical compositions, and uses thereof” (Merck Sharp & Dohme Corp., priority 2017, dated 2021).

What follows are compounds tested against GST-tagged truncated human mutant G2019S LRRK2 (Homo sapiens (Human), UniProt Q5S007, G2019S) (assay: LRRK2 G2019S Km ATP LanthaScreen Assay). Conditions: 134 μM ATP (Km ATP); fluorescein-labeled LRRKtide substrate; mean IC50 values.
Chain of GST-tagged truncated human mutant G2019S LRRK2 (Q5S007 970-2527 G2019S): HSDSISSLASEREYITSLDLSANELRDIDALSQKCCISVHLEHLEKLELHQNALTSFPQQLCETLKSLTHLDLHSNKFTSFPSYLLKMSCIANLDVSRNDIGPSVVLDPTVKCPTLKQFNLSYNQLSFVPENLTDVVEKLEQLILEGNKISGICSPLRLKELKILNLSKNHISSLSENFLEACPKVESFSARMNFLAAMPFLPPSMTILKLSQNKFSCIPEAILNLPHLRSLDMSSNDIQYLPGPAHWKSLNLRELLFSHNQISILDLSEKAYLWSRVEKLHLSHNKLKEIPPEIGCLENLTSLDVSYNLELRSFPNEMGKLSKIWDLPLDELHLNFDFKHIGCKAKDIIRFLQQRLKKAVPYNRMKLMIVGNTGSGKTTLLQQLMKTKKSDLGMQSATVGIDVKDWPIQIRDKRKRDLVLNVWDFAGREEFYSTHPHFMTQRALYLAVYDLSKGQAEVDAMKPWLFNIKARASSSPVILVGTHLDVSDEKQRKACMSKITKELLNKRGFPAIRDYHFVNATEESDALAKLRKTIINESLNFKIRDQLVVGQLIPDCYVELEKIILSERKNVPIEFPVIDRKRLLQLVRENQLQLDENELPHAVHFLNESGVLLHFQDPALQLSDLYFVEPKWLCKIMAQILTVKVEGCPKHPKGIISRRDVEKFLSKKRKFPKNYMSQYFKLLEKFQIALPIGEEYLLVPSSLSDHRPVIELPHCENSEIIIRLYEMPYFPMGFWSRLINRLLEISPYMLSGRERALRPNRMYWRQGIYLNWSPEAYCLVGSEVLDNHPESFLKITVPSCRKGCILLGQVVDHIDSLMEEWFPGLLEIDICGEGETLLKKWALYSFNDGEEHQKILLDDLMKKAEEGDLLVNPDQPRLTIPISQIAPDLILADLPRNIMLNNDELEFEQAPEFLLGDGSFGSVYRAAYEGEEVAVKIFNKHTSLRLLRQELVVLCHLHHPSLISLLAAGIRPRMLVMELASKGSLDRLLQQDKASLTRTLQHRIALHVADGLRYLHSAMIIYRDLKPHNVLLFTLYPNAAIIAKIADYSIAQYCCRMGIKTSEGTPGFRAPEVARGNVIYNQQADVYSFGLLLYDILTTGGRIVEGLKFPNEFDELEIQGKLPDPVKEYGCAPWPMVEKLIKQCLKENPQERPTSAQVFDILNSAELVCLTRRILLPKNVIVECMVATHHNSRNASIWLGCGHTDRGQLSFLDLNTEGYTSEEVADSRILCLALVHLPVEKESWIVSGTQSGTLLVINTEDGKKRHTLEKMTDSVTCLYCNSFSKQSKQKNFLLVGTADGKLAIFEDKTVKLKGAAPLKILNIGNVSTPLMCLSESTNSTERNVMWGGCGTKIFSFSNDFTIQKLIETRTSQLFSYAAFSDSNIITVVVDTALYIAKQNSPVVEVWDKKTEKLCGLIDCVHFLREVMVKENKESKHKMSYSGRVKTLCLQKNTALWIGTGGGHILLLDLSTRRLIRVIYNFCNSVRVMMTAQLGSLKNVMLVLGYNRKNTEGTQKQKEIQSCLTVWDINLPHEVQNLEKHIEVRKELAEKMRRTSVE
Format: biochemical

SMILES	IC50
C[C@H]1CN(c2cc(-n3ncc4ccc([C@]5(C#N)CC56CC6)cc43)ncn2)CCN1S(C)(=O)=O [Example 4.8]	1.2 nM
CNc1nc(N2CC3(C(C)(C)O)CC2C3)cc(-n2ncc3ccc(C4(C#N)CC45CC5)cc32)n1 (single isomer, unassigned) [Example 2.7-2, 1-(1-(6-(4-(2-hydroxypropan-2-yl)-2-azabicyclo[2.1.1]hexan-2-yl)-2-(methylamino)pyrimidin-4-yl)-1H-indazol-6-yl)spiro[2.2]pentane-1-carbonitrile]	0.6 nM
COCc1nc(N2C[C@@H](C)[C@@](C)(O)[C@@H](C)C2)cc(-n2ncc3ccc([C@]4(C#N)CC45CC5)cc32)n1 [Example 3.3]	1 nM
CC(C)(O)[C@@H]1CCN(c2cc(-n3ncc4ccc(C5(C#N)CC56CC6)cc43)cnn2)C1 (single isomer, unassigned) [Example 10.4-2]	2.7 nM
Cc1nc(N2CC3(C(C)(C)O)CC2C3)cc(-n2ncc3cc(F)c(C4(C#N)CC45CC5)cc32)n1 (single isomer, unassigned) [Example 5.6-2, 1-(5-fluoro-1-(6-(4-(2-hydroxypropan-2-yl)-2-azabicyclo[2.1.1]hexan-2-yl)-2-methylpyrimidin-4-yl)-1H-indazol-6-yl)spiro[2.2]pentane-1-carbonitrile]	1.3 nM
C[C@@H]1CN(c2cc(-n3ncc4ccc([C@]5(C#N)CC56CC6)cc43)ncn2)C[C@H](C)[C@]1(C)O [Example 3.2]	1.1 nM
CC(C)(O)C12CC(C1)N(c1cc(-n3ncc4cnc(C5(C#N)CC56CC6)cc43)ncn1)C2 (single isomer, unassigned) [Example 5.2-2, 1-(1-(6-(4-(2-hydroxypropan-2-yl)-2-azabicyclo[2.1.1]hexan-2-yl)pyrimidin-4-yl)-1H-pyrazolo[4,3-c]pyridin-6-yl)spiro[2.2]pentane-1-carbonitrile]	1.7 nM
Cc1nc(N2CC3(C(C)(C)O)CC2C3)cc(-n2ncc3ccc(C4(C#N)CC45CC5)cc32)n1 (single isomer, unassigned) [Example 2.4-1, 1-(1-(6-(4-(2-hydroxypropan-2-yl)-2-azabicyclo[2.1.1]hexan-2-yl)-2-methylpyrimidin-4-yl)-1H-indazol-6-yl)spiro[2.2]pentane-1-carbonitrile]	2.1 nM
CC(C)(O)C12CC(C1)N(c1cc(-n3ncc4ccc(C5(C#N)CC56CC6)cc43)cnn1)C2 (single isomer, unassigned) [Example 10.3-2, (R or S)-1-(1-(6-(4-(2-hydroxypropan-2-yl)-2-azabicyclo[2.1.1]hexan-2-yl)pyridazin-4-yl)-1H-indazol-6-yl)spiro[2.2]pentane-1-carbonitrile]	15.4 nM
N#C[C@@]1(c2ccc3cnn(-c4cc(C5CC5)ncn4)c3c2)CC12CC2 [Example 4.21]	6.5 nM
CC1(O)CC2(CN(c3cc(-n4ncc5ccc([C@@]6(C#N)CC67CC7)cc54)ncn3)C2)C1 [Example 3.9-1]	2.5 nM
CS(=O)(=O)N1CCN(c2cc(-n3ncc4ccc([C@]5(C#N)CC56CC6)cc43)ncn2)CC1 [Example 4.7]	1.3 nM
CNc1nc(N2CC[C@H](C(F)F)C2)cc(-n2ncc3ccc(C4(C#N)CC45CC5)cc32)n1 (single isomer, unassigned) [Example 2.8-1]	0.7 nM
Cc1cc(-n2ncc3ccc([C@]4(C#N)CC45CC5)cc32)nc(C2CC2)n1 [Example 4.23]	3.2 nM
N#C[C@@]1(c2ccc3cnn(-c4cc(N5CC(O)C6(CC6)C5)ncn4)c3c2)CC12CC2 (single isomer, unassigned) [Example 3.11-4]	0.6 nM
CC(C)(O)[C@@H]1CCN(c2cc(-n3ncc4cnc(C5(C#N)CC56CC6)cc43)ncn2)C1 (single isomer, unassigned) [Example 5.3-2]	0.7 nM
CC(C)(O)[C@H]1CN(c2cc(-n3ncc4ccc([C@]5(C#N)CC56CC6)cc43)ncn2)C[C@H]1F [Example 4.12-1]	1.2 nM
COCc1nc(N2C[C@@H](C)N(C3COC3)[C@@H](C)C2)cc(-n2ncc3ccc([C@]4(C#N)CC45CC5)cc32)n1 [Example 4.6]	0.9 nM
